Patent US7138421B2, “Anti-androgenic pyrrolidines with tumor-inhibiting action” (Schring Aktiengesellschaft, priority 2003, dated 2006)
Where two headings read alike, the source gives them in different places.

What was measured:
LNCaP cells = test: Inhibition of the proliferation of LNCaP cells (crystal violet assay); type: cell-based, human; conditions: for inhibition at 1 µM: read-out: % Inhibition at 1 μM, 1 μM test substance, compared to cell growth in the presence of 0.1 nmol of R1881; for IC50: 7 to 8 days
Protocol: For the proliferation assay, 6000 LNCaP cells/well (Horoszewicz et al. Cancer Res. 1983, 43, 1809–1817) in a microtiter plate (96-well) in 50 μl of RPMI1640 medium are grown with 5% CCS and cultivated as in Model 1. After 24 hours, the cells receive 50 μl of 2×-concentrated test substance, diluted in culture medium. The solvent concentration is 0.5% DMSO. After 4 days, the cells receive another 100 μl of 1×-concentrated test substance, diluted in culture medium. After 7 to 8 days, the proliferation rate of the cells is determined by means of crystal violet assay (Gillies et al. Anal. Biochem. 1986, 159, 109–113). To determine the antagonism, the substance treatment is performed in the presence of […] of R1881 (1:1000 dilution of ethanolic solution). Control cells receive only 0.5% DMSO. For the agonism, the cells are treated only with test substance (without R1881).

[1] = Pharmacokinetics in rats after intravenous and peroral administration; type: in vivo; conditions: rat, serum; for Vd / clearance: intravenous; for Vd: read-out: Distribution Volume Vdss; for clearance: read-out: Systemic Serum Clearance CL; for Tmax: read-out: Absorption Tmax
From the text: Model 4: Pharmacokinetics in Rats After Intravenous and Peroral Administration
The pharmacokinetic properties of the compounds according to the invention were studied in Examples 1: 4-[4,4-dimethyl-5-oxo-3-[8-(pyrrolidin-1-yl)octyl]-2-thioxoimidazolidin-1-yl]-2-(trifluoromethyl)benzonitrile and 11: 4-[3-[8-[(2S)-2-(hydroxymethyl)pyrrolidin-1-yl]octyl]-4,4-dimethyl-5-oxo-2-thioxoimidazolidin-1-yl]-2-(trifluoromethyl)benzonitrile.

androgen receptor = biological target: T1, androgen receptor (Homo sapiens, UniProt P10275, T878A); type: cell-based; conditions: LNCaP cells, 48 h, 10 μM, % of DMSO control
T1 construct: Destabilization of AR in LNCaP Cells by Test Substances; endogenous in cells; host or cells: LNCaP (human prostate cell line)
T1 sequence (P10275 1-920 T878A): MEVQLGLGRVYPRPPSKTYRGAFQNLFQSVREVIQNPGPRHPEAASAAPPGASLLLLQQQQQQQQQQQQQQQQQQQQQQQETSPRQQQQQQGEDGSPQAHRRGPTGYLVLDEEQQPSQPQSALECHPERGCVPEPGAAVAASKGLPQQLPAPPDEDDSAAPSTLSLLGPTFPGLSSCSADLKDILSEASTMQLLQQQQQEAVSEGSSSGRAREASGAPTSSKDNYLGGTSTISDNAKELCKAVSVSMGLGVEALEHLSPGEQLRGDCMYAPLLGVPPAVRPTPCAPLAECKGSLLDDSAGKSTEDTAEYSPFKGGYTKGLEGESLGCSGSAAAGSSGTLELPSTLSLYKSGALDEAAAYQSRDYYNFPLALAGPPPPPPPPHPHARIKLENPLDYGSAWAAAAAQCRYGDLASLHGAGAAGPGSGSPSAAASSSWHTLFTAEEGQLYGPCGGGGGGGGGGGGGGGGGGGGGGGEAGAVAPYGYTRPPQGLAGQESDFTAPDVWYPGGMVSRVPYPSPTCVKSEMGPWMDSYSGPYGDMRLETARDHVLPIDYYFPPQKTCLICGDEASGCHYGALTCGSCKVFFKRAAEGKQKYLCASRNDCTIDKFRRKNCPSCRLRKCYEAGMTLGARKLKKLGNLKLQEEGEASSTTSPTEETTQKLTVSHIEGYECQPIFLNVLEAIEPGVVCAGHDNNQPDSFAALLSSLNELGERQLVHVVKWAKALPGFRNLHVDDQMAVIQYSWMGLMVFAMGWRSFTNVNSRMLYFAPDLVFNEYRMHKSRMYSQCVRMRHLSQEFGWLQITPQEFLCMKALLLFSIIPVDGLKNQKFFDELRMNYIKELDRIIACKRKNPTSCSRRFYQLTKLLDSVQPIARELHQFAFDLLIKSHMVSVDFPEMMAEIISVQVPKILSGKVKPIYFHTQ

seminal vesicles = test: Anti-androgenic action on testosterone-stimulated growth of the seminal vesicles of castrated mice; type: in vivo, mouse; conditions: 1× daily, 7 days, castrated mice with testosterone propionate
Protocol: The function and the size of accessory reproductive glands (prostate and seminal vesicles) depend on androgens. In castrated animals, a growth of these organs is induced by the administration of androgen. Simultaneous treatment with anti-androgens inhibits this growth in a dose-dependent manner. For the examination of test substances, the mice were castrated. On the same day, treatment with testosterone propionate (0.03 mg/mouse) and the test substances (1× daily 10 or 30 mg/kg p.o. in benzyl benzoate-castor oil or ethanol/peanut oil (10:90)) was formulated. The treatment was carried out over 7 days and at the end of the test, the weights of the seminal vesicles and prostate were determined. The inhibition of the seminal vesicle growth, in percent, was calculated in reference to the control groups (with and without testosterone). As a reference substance, cyproterone acetate (30 mg/kg s.c. and p.o.) was used.

[2] = Homo sapiens, LNCaP, read-out: IC50 inhibition of the proliferation of LNCaP cells, in the presence of 0.1 nmol of R1881
[3] = iv, read-out: Half-Life i.v. T1/2 (converted)
[4] = po, read-out: Half-Life p.o. T1/2 (converted)

Structure (SMILES)	inhibition at 1 µM (LNCaP cells; Homo sapiens, LNCaP)	IC50 (LNCaP cells; [2])	Vd [1]	clearance [1]	half-life [1, 3]	bioavailability ([1]; po)	Tmax ([1]; po)	half-life [1, 4]	AR Content at 10 μM (androgen receptor)	% Inhibition of MSB Growth (seminal vesicles; 10 mg/kg p.o.)	% Inhibition of MSB Growth (seminal vesicles; 30 mg/kg p.o.)	% Inhibition at 1 μM (LNCaP cells; 1 μM test substance, compared to cell growth in the presence of 0.1 nmol of R1881)	IC50 (LNCaP cells; read-out: IC50 inhibition of the proliferation of LNCaP cells, in the presence of 0.1 nmol of R1881, hydrochloride)
CC1(C)C(=O)N(c2ccc(C#N)c(C(F)(F)F)c2)C(=S)N1CCCCCCCCN1CCCC1 [Example 1, 4-[4,4-Dimethyl-5-oxo-3-[8-(pyrrolidin-1-yl)octyl]-2-thioxoimidazolidin-1-yl]-2-(trifluoromethyl)benzonitrile]	98%	45 nM	37 L/kg	76 mL/min/kg	5.6 h	72%	5 h	6.1 h	63%	82%	99%	–	–
CC1(C)C(=O)N(c2ccc(C#N)c(C(F)(F)F)c2)C(=S)N1CCCCCCCCN1CCC[C@@H]1CO [Example 10, 4-[3-[8-[(2R)-2-(Hydroxymethyl)pyrrolidin-1-yl]octyl]-4,4-dimethyl-5-oxo-2-thioxoimidazolidin-1-yl]-2-(trifluoromethyl)benzonitrile]	101%	< 10 nM	–	–	–	–	–	–	–	87%	–	–	–
CC1(C)C(=O)N(c2ccc(C#N)c(C(F)(F)F)c2)C(=S)N1CCCCCCCCN1CCC[C@H]1CO [Example 11, 4-[3-[8-[(2S)-2-(Hydroxymethyl)pyrrolidin-1-yl]octyl]-4,4-dimethyl-5-oxo-2-thioxoimidazolidin-1-yl]-2-(trifluoromethyl)benzonitrile]	102%	13 nM	11 L/kg	20 mL/min/kg	5.7 h	65%	7 h	8 h	50%	–	95%	–	–
CC1(C)C(=O)N(c2ccc(C#N)c(C(F)(F)F)c2)C(=S)N1CCCCCCCCN1CCCC1.Cl [Example 2, 4-[4,4-Dimethyl-5-oxo-3-[8-(pyrrolidin-1-yl)octyl]-2-thioxoimidazolidin-1-yl]-2-(trifluoromethyl)benzonitrile hydrochloride]	–	–	–	–	–	–	–	–	50%	–	95%	100%	41 nM
